{
  "source": "patent US5686486A",
  "about": "“4-hydroxy-benzopyran-2-ones and 4-hydroxy-cycloalkyl[b]pyran-2-ones useful to treat retroviral infections” (priority 1995, dated 1997)",
  "molecular_target": "HIV-1 protease (Human immunodeficiency virus type 1 group M subtype B, UniProt P04585)",
  "test": "biochemical",
  "settings": "for inhibition at 1 µM: read-out: HIV-1 Protease % Inhib, dose 1.000 uM; for inhibition at 10 µM: read-out: HIV-1 Protease % Inhib, dose 10.000 uM; for inhibition at 100 µM: read-out: HIV-1 Protease % Inhib, dose 100.000 uM",
  "description": "The HIV protease screening assay is based on fluorescently labeled substrate which can be resolved from nonlabeled cleavage product using special beads coated with streptavidin. The substrate is biotinylated at the amino terminal arginine and fluorescently labeled with fluorescein isothiocynate (FITC) at the carboxyl terminal lysine. This assay has been employed to detect novel, nonpeptidic inhibitors of HIV-1 protease. Substrate (20 μl of 0.2 μM), sample (10 μl of desired concentration), and enzyme (10 μl of 0.1 μM) are added to a 96 well pandex plate. The assay is run in 0.1M sodium acetate buffer at pH 5.5 in the presence of 1.0M sodium chloride and 0.05% NP-40 with incubated in the dark for one hour at room temperature. Strepavidin coated polystyrene beads {40 μl of 0.1% (w/v)} are added and the plate is incubated in the dark for an additional half hour. The labeled cleavage product is separated from the unreacted substrate via filtration and is read on the Idexx screen machine. The data are analyzed by appropriate computer algorithms to ascertain percent inhibition values.",
  "note": "“And” between values parts separate entries of the source, which are not always exact repeats. Equal values may be shown once.",
  "data": [
    {"smiles": "CCC(c1ccccc1)c1c(O)c2cc(OC)ccc2oc1=O", "note": "(stereo not shown) [Example 89, Coumarin, 4-hydroxy-6-methoxy-3-(1-phenylpropyl)-]", "values": [
      {"measurement": "inhibition at 1 µM", "value": "< 10", "unit": "%"},
      {"measurement": "inhibition at 10 µM", "value": 10.3, "unit": "%"},
      {"measurement": "inhibition at 100 µM", "value": 52, "unit": "%"}
    ]},
    {"smiles": "CCC(c1ccccc1)c1c(O)c2ccc(C)cc2oc1=O", "note": "(stereo not shown) [Example 90, Coumarin, 4-hydroxy-7-methyl-3-(1-phenylpropyl)-]", "values": [
      {"measurement": "inhibition at 1 µM", "value": "< 10", "unit": "%"},
      {"measurement": "inhibition at 10 µM", "value": 29.7, "unit": "%"},
      {"measurement": "inhibition at 100 µM", "value": 89.2, "unit": "%"}
    ]},
    {"smiles": "CCC(c1ccc(Br)cc1)c1c(O)c2ccccc2oc1=O", "note": "(stereo not shown) [Example 91, Coumarin, 3-[1-(4-bromophenyl)propyl]-4-hydroxy-]", "values": [
      {"measurement": "HIV-1 Protease % Inhib", "setting": "dose 100.000 uM", "value": "94.41% and 71.61%"},
      {"measurement": "inhibition at 1 µM", "value": "< 10", "unit": "%"},
      {"measurement": "inhibition at 10 µM", "value": 38.4, "unit": "%"}
    ]},
    {"smiles": "CCC(c1ccccc1)c1c(O)c2ccc(Cl)cc2oc1=O", "note": "(stereo not shown) [Example 92, Coumarin, 7-chloro-4-hydroxy-3-(1-phenylpropyl)-]", "values": [
      {"measurement": "inhibition at 1 µM", "value": "< 10", "unit": "%"},
      {"measurement": "inhibition at 10 µM", "value": 67.8, "unit": "%"},
      {"measurement": "inhibition at 100 µM", "value": 113, "unit": "%"}
    ]},
    {"smiles": "CCC(c1ccccc1)c1c(O)c2ccc(O)cc2oc1=O", "note": "(stereo not shown) [Example 93, Coumarin, 4,7-dihydroxy-3-(1-phenylpropyl)-]", "values": [
      {"measurement": "IC50", "setting": "HIV-1 Protease IC50", "value": 20.6, "unit": "µM"},
      {"measurement": "HIV-1 Protease % Inhib", "setting": "dose 100.000 uM", "value": 91.7, "unit": "%"},
      {"measurement": "inhibition at 1 µM", "value": 23.2, "unit": "%"},
      {"measurement": "inhibition at 10 µM", "value": 79.4, "unit": "%"},
      {"measurement": "inhibition at 100 µM", "value": 109, "unit": "%"}
    ]},
    {"smiles": "CCC(c1ccc(OC)cc1)c1c(O)c2ccccc2oc1=O", "note": "(stereo not shown) [Example 94, Coumarin, 4-hydroxy-3-[1-(4-methoxyphenyl)propyl]-]", "values": [
      {"measurement": "HIV-1 Protease % Inhib", "setting": "dose 100.000 uM", "value": 82.45, "unit": "%"},
      {"measurement": "inhibition at 1 µM", "value": "< 10", "unit": "%"},
      {"measurement": "inhibition at 10 µM", "value": 44.7, "unit": "%"},
      {"measurement": "inhibition at 100 µM", "value": 96.4, "unit": "%"}
    ]},
    {"smiles": "CCC(c1ccccc1)c1c(O)c2cc(O)ccc2oc1=O", "note": "(stereo not shown) [Example 95, Coumarin, 4,6-dihydroxy-3-(1-phenylpropyl)-]", "values": [
      {"measurement": "inhibition at 1 µM", "value": "< 10", "unit": "%"},
      {"measurement": "inhibition at 10 µM", "value": 34.7, "unit": "%"},
      {"measurement": "inhibition at 100 µM", "value": 79.6, "unit": "%"}
    ]},
    {"smiles": "CCC(c1ccccc1)c1c(O)c2cc(N)ccc2oc1=O", "note": "(stereo not shown) [Example 96, Coumarin, 6-amino-4-hydroxy-3-(1-phenylpropyl)-]", "values": [
      {"measurement": "inhibition at 1 µM", "value": "< 10", "unit": "%"},
      {"measurement": "inhibition at 10 µM", "value": "< 10", "unit": "%"},
      {"measurement": "inhibition at 100 µM", "value": 48.7, "unit": "%"}
    ]},
    {"smiles": "CCCC(c1cccc(C)c1)c1c(O)c2ccccc2oc1=O", "note": "(stereo not shown) [Example 97, Coumarin, 4-hydroxy-3-[1-(3-methylphenyl)butyl]-]", "values": [
      {"measurement": "inhibition at 1 µM", "value": "< 10", "unit": "%"},
      {"measurement": "inhibition at 10 µM", "value": 29.9, "unit": "%"},
      {"measurement": "inhibition at 100 µM", "value": 78.2, "unit": "%"}
    ]},
    {"smiles": "CCC(c1cccc(C#N)c1)c1c(O)c2ccccc2oc1=O", "note": "(stereo not shown) [Example 98, Coumarin, 3-[1-(3-cyanophenyl)propyl]-4-hydroxy-]", "values": [
      {"measurement": "inhibition at 1 µM", "value": "< 10", "unit": "%"},
      {"measurement": "inhibition at 10 µM", "value": "< 10", "unit": "%"},
      {"measurement": "inhibition at 100 µM", "value": 74.5, "unit": "%"}
    ]},
    {"smiles": "CCC(c1ccccc1)c1c(O)c2ccc3ccccc3c2oc1=O", "note": "(stereo not shown) [Example 99, 2H-Naphtho[1,2-b]pyran-2-one, 4-hydroxy-3-(1-phenylpropyl)-]", "values": [
      {"measurement": "inhibition at 1 µM", "value": "< 10", "unit": "%"},
      {"measurement": "inhibition at 10 µM", "value": "< 10", "unit": "%"},
      {"measurement": "inhibition at 100 µM", "value": 43.3, "unit": "%"}
    ]},
    {"smiles": "CCC(c1ccc(OCC(O)CO)cc1)c1c(O)c2ccccc2oc1=O", "note": "(stereo not shown) [Example 100, Coumarin, 4-hydroxy-3-[1-[4-(2,3-dihydroxy)propoxyphenyl]propyl]-]", "values": [
      {"measurement": "HIV-1 Protease % Inhib", "setting": "dose 10.000 uM", "value": "< 10", "unit": "%"},
      {"measurement": "HIV-1 Protease % Inhib", "setting": "dose 100.000 uM", "value": 40.3, "unit": "%"},
      {"measurement": "inhibition at 1 µM", "value": "< 10", "unit": "%"},
      {"measurement": "inhibition at 10 µM", "value": 12.3, "unit": "%"},
      {"measurement": "inhibition at 100 µM", "value": 53, "unit": "%"}
    ]},
    {"smiles": "CC(c1cccc(C#N)c1)c1c(O)c2ccccc2oc1=O", "note": "(stereo not shown) [Example 101, Coumarin, 3-[1-(3-Cyanophenyl)ethyl]-4-hydroxy-]", "values": [
      {"measurement": "inhibition at 1 µM", "value": "< 10", "unit": "%"},
      {"measurement": "inhibition at 10 µM", "value": "< 10", "unit": "%"},
      {"measurement": "inhibition at 100 µM", "value": 39.2, "unit": "%"}
    ]},
    {"smiles": "CCC(c1cccc(OC)c1)c1c(O)c2ccccc2oc1=O", "note": "(stereo not shown) [Example 102, Coumarin, 4-hydroxy-3-[1-(3-methoxyphenyl)propyl]-]", "values": [
      {"measurement": "HIV-1 Protease % Inhib", "setting": "dose 100.000 uM", "value": 75.63, "unit": "%"},
      {"measurement": "inhibition at 1 µM", "value": "< 10", "unit": "%"},
      {"measurement": "inhibition at 10 µM", "value": 24, "unit": "%"},
      {"measurement": "inhibition at 100 µM", "value": 78.8, "unit": "%"}
    ]},
    {"smiles": "CCC(c1cccc(O)c1)c1c(O)c2ccccc2oc1=O", "note": "(stereo not shown) [Example 103, Coumarin, 4-hydroxy-3-[1-(3-hydroxyphenyl)propyl]-]", "values": [
      {"measurement": "HIV-1 Protease % Inhib", "setting": "dose 100.000 uM", "value": "87.29% and 73.35%"},
      {"measurement": "inhibition at 1 µM", "value": "< 10", "unit": "%"},
      {"measurement": "inhibition at 10 µM", "value": 25.7, "unit": "%"},
      {"measurement": "inhibition at 100 µM", "value": 80.9, "unit": "%"}
    ]}
  ]
}
